Data published in patent US20160106100A1, “MICROBICIDAL COMPOSITION COMPRISING AN ISOTHIAZOLONE AND AN AMINE OXIDE” (priority 2013, published 2016).

Key:
Format in all cases: cell-based
[1] = test system: Candida albicans (ATCC 10231); experiment: MIC and synergy index of MIT + N,N-Dimethyldodecan-1-amine oxide in Muller Hinton Broth; conditions: for MHK: alone, 72 hours at 25° C.; for Synergistic Index / Total: single biocide alone
Experimental: Furthermore, the synergism of a combination of 2-Methyl-isothiazolinone (MIT) with N,N-Dimethyldodecan-1-amine oxide was tested using Candida albicans (ATCC 10231). For the purpose of the test, mixtures containing different concentrations of MIT and N,N-Dimethyldodecan-1-amine oxide were prepared and tested for their action on Candida albicans. The active compound mixtures in the corresponding concentrations were introduced into selective nutrient media (Muller Hinton Broth). The cell density in the broth was in each case 1.0-10^6 spores per ml. The incubation time is 72 hours at 25° C. This was followed by visual testing for growth of Candida albicans. In this way the minimum inhibitory concentrations (MICs) of the two active compounds were determined, individually and in combination. The synergism that occurred was presented numerically by calculation of the synergy index (SI).

[2] = test system: Aspergillus niger (DSM 12623); experiment: MIC and synergy index of MIT + N,N-Dimethyldodecan-1-amine oxide in Sabouraud glucose agar; conditions: for Synergy Index (Qa/QA + Qb/QB): sole biocide
Experimental: The synergism of a combination of 2-Methyl-isothiazolinone (MIT) with N,N-Dimethyldodecan-l-amine oxide was tested. Test organisms used was the mould Aspergillus niger (DSM 12623). For the purpose of the test, mixtures containing different concentrations of MIT and N,N-Dimethyldodecan-1-amine oxide were prepared and tested for their action on Aspergillus niger. The active compound mixtures in the corresponding concentrations were introduced into selective nutrient media (Sabouraud glucose agar for Aspergillus niger and the test organisms were likewise incorporated into the agar. The cell density in the agar was in each case 3.7·10^6 spores per ml for Aspergillus niger. The incubation time is 72 hours at 25° C. This was followed by visual testing for growth of Aspergillus niger. The growth was apparent through the formation of colonies or mycelia on the surface of the agar. In this way the minimum inhibitory concentrations (MICs) of the two active compounds were determined, individually and in combination. The MIC is the concentration at which there is no formation of colonies or mycelia on the surface of the agar ( Aspergillus niger).
The synergism that occurred was presented numerically by calculation of the synergy index (SI). This calculation was made using the common method of F. C. Kull et al., Applied Microbiology, vol. 9 (1961), p. 538. SI is calculated there in accordance with the following formula:
Synergy index SI=Qa/QA+Qb/QB
If the synergy index has a value of more than 1, this means that there is an antagonism. If the synergy index adopts a value of 1, this means that the action of the two biocides is additive. If the synergy index takes on a value of below 1, this means that there is synergism of the two biocides.
Calculation of the synergy index of N,N-Dimethyldodecan-1-arnine oxide+MIT in respect of Aspergillus niger for an incubation time of 72 hours at 25° C.

Aspergillus niger = experiment: MIC and synergy index of ternary mixture Benzalkoniumchloride, N,N-Dimethyldodecan-1-amine oxide and MIT; conditions: used alone
Experimental: In a further Experiment the synergy index of a ternary mixture of Benzalkoniumchloride, N,N-Dimethyldodecan-1-amine oxide and MIT was determined in respect of Aspergillus niger for an incubation time of 72 hours at 25 ° C.
The synergy of an active substance mixture that contains Benzalkoniumchloride in addition to N,N-Dimethyldodecan-1-amine oxide and MIT, against the microorganism Aspergillus niger is shown as in Table 4.

Row | Compound | MHK [1] | Synergistic Index [1] | Total [1] | MIC ([2]; as sole biocide, 72 hours at 25° C.) | Synergy Index (Qa/QA + Qb/QB) [2] | Synergistic Index (Aspergillus niger) | MHK (Aspergillus niger; 72 hours at 25 ° C.) | MIC ([2]; Aspergillus niger, DSM12623, 72 h)
1 | Cn1sccc1=O [MIT, 2-methylisothiazolin-3-one] | 125 ppm | 1.00 | 125 ppm | 1000 (MIC) ppm | 1.00 | – | – | –
2 | Benzalkoniumchloride [BAC] | – | – | – | – | – | 1.00 | 80 ppm | –
3 | CCCCCCCCCCCC[N+](C)(C)[O-] [N,N-Dimethyldodecan-1-amine oxide] | 50 ppm | 1.00 | 50 ppm | – | 1.00 | – | – | 231 µg/mL
